{"source": "patent US9359451B2", "about": "“Methods and compositions for treating trauma-hemorrhage using estrogen and derivatives thereof” (THE UAB RESEARCH FOUNDATION, priority 2012, dated 2016)", "key": {"Splenocytes": {"tested_on": "Splenocytes", "assay": "Splenocyte proliferation and cytokine release after trauma-hemorrhage (ex vivo, Con A)", "assay_type": "in vivo, mouse", "experimental": "(§1) Experimental groups. Ovariectomy was performed in female CBA/J mice 2 wk before trauma-hemorrhage using two dorsolateral incisions. […] Two weeks after ovariectomy, the animals were divided into four groups. Groups 1 and 2 consisted of sham-operated ovariectomized females, which were neither hemorrhaged nor resuscitated. Animals in groups 3 and 4 consisted of ovariectomized females, which were subjected to the trauma-hemorrhage procedure. Immediately before initiation of fluid resuscitation, animals in groups 1 and 3 received a subcutaneous injection of vehicle ([…] corn oil), and animals in groups 2 and 4 were treated with E2 ([…]/25 g body wt dissolved in […] corn oil). Each group consisted of 7-8 animals.\n(§2) Trauma-hemorrhage procedure. Mice in the trauma-hemorrhage groups were lightly anesthetized with methoxyflurane (Metofane; Pitman Moore, Mundelein, Ill.) and restrained in a supine position, and a 2.5-cm midline laparotomy (i.e., soft tissue trauma induced) was performed, which was then closed aseptically in two layers using 6-0 Ethilon sutures (Ethicon, Somerville, N.J.). Both femoral arteries were then aseptically cannulated with polyethylene-10 tubing (Clay-Adams, Parsippany, N.J.) using a minimal dissection technique, and the animals were allowed to awaken. Blood pressure was constantly monitored by attaching one of the catheters to a blood pressure analyzer (Micro-Med, Louisville, Ky.). Lidocaine was applied to the incision sites to provide analgesia during the study period. Upon awakening, the animals were bled through the other catheter to a mean arterial blood pressure of 35±5 mmHg (mean arterial blood pressure prehemorrhage was 95±5 mmHg), which was maintained for 90 min. At the end of that procedure, the animals were resuscitated with four times the shed blood volume in the form of lactated Ringer solution. The catheters were then removed, the vessels were ligated, and the groin incisions were closed. Sham-operated animals underwent the same surgical procedure, which included ligation of both femoral arteries, but neither hemorrhage nor fluid resuscitation was carried out. There was no mortality observed in this model of trauma-hemorrhage.\nPreparation of splenocyte culture. At 24 h after sham operation or trauma-hemorrhage and resuscitation, the spleens were removed aseptically and placed in separate petri dishes containing 4° C. phosphate-buffered saline (PBS) solution. Splenocytes were isolated as previously described in detail (Zellweger 1995). Briefly, the organs were gently ground between frosted microscope slides to produce a single cell suspension. This suspension was centrifuged at 300 g for 15 min. After resuspension, the erythrocytes were lysed hypotonically, and the remaining cells were washed with PBS by centrifugation (300 g, 15 min). Viability was tested using trypan blue exclusion and found to be ˜95% regardless of the group assessed. […] The ability of the splenocyte cultures to produce cytokines in response to a mitogenic challenge was assessed by incubation for 48 h (at 37° C., 5% CO2, and 90% humidity) in the presence of […] concanavalin A (Con A; Pharmacia/LKB Biotech, Piscataway, N.J.). […]\nSplenocyte proliferation. […] The cells' ability to proliferate in response to mitogenic stimulation with 0 (negative control) or […] Con A was measured by [^3H]thymidine incorporation technique as previously de scribed (Stephan 1987). […]"}, "[1]": {"tested_on": "splenic macrophages (sMΦ) and peritoneal macrophages (pMΦ)", "assay": "Splenic and peritoneal macrophage cytokine release after trauma-hemorrhage (ex vivo, LPS)", "assay_type": "in vivo, mouse", "settings": "24 h after trauma-hemorrhage, LPS 48 h", "experimental": "as §1, §2\nPreparation of sMΦ and pMΦ culture. Spleens were harvested aseptically, and sMΦ cultures were established as previously described in detail (Zellweger 1996). Resident pMΦ were harvested by peritoneal lavage at 24 h after sham operation or trauma-hemorrhage and resuscitation, and monolayers were established as previously described (Ayala 1990). The monolayers of sMΦ and pMΦ (1×10^6 cells/ml) were stimulated with […] of lipopolysaccharide W/ml Click's medium containing 10% heat-inactivated FBS for 48 h at 37° C., 5% CO2, and 90% humidity to assess the cells' ability to release cytokines (Lipopolysaccharide W was from Escherichia coli 055:B5, Difco Laboratories, Detroit, Mich.) At the end of the incubation period, the culture supernatants were removed, centrifuged at 300 g for 15 min, divided into aliquots, and stored.\nIL-10 concentrations in macrophage and splenocyte supernatants and IFN-γ levels in the splenocyte supernatants were determined using sandwich-enzyme-linked immunosorbent assay technique (ELISA) according to the manufacturer's recommendations (BD OptEIA ELISA set; BD Pharmingen, San Diego, Calif.).\nIL-6 activity was determined by assessing the 72-h proliferation of the IL-6-dependent murine B cell hybridoma 7TD1 stimulated by serial dilutions of sMΦ and pMΦ supernatants (Ayala 1992). For the last 3 h of incubation, […] of a 3-(4,5-dimethylthiazol-2-yl)-2,5-diphenyltetrazolium bromide solution (5 mg/ml in RPMI 1640; Sigma Chemical, St. Louis, Mo.) was added to each well. The amount of dark blue formazan crystal formation was then measured spectrophotometrically. […]"}, "degenerate neurons": {"tested_on": "degenerate neurons", "assay": "Traumatic brain injury: Fluro-Jade staining of degenerate neurons", "assay_type": "in vivo, rat", "settings": "brain cortex or CA 2/3 hippocampus, 24 hours after 1 mg/kg iv given 1 hour after LFP TBI", "from_the_text": "As such, the lesser the FJ staining, the greater the neuroprotection. Sections stained with FJ are quantified as FJ positive cells, and are taken from brain cortex or CA 2/3 region of the hippocampus. The groups shown in the graph above are sham+vehicle, sham+E2, TBI+vehicle and TBI+E2."}, "[2]": {"settings": "24 h after trauma-hemorrhage, Con A 48 h"}}}
{"smiles": "C[C@]12CC[C@@H]3c4ccc(O)cc4CC[C@H]3[C@@H]1CC[C@@H]2O", "note": "[17β-estradiol]", "values": [{"measurement": "splenocyte IFN-γ release", "setting": "Splenocytes; [2]", "result": "no depression of IFN-γ production was observed"}, {"measurement": "splenocyte IL-2 production", "setting": "Splenocytes; [2]", "result": "restored IL-2 productive capacity"}, {"measurement": "splenocyte IL-3 release", "setting": "Splenocytes; [2]", "result": "significantly improved splenocyte IL-3 release capacity"}, {"measurement": "splenocyte proliferative capacity", "setting": "Splenocytes; 24 h after trauma-hemorrhage, Con A, [3H]thymidine", "result": "no depression of splenocyte proliferative capacity was observed"}, {"measurement": "splenocyte IL-10 production", "setting": "Splenocytes; after trauma-hemorrhage compared with E2-treated sham-operated animals", "result": "significantly reduced IL-10 production"}, {"measurement": "pMΦ IL-1β release", "setting": "[1]", "result": "partial restoration of pMΦ IL-1β release"}, {"measurement": "pMΦ IL-6 production", "setting": "[1]", "result": "maintained at sham levels"}, {"measurement": "pMΦ IL-10 production", "setting": "[1]", "result": "not affected by either trauma-hemorrhage or E2 treatment"}, {"measurement": "sMΦ IL-6 release", "setting": "[1]", "result": "did not influence IL-6 release"}, {"measurement": "sMΦ IL-10 release", "setting": "[1]", "result": "significantly reduced IL-10 release"}, {"measurement": "sMΦ IL-12 production", "setting": "[1]", "result": "prevented the depression in sMΦ IL-12 production"}, {"measurement": "Fluro-Jade positive cells (neurodegeneration)", "setting": "degenerate neurons", "result": "greater that twofold fewer cells undergoing neurodegeneration"}]}
